Experimental data taken from PMC6691587, “New CXCR1/CXCR2 inhibitors represent an effective treatment for kidney or head and neck cancers sensitive or refractory to reference treatments” (Theranostics, 2019).

The molecules below were run on Molm13 (assay: XTT cell viability assay, Molm13 AML cells). Conditions: Homo sapiens, MOLM-13, 48 h, SD 10%, mean of three experiments.
Assay type: cell-based, human
Procedure: (§1) Fifty microliters of sodium 3′-[1-phenylaminocarbonyl)-3,4-tetrazolium]-bis(4-methoxy-6-nitro) benzene sulfonic acid hydrate (XTT) reagent was added to each well. The assay is based on the cleavage of the yellow tetrazolium salt XTT to form an orange formazan dye by metabolically active cells. This bio-reduction occurs in viable cells only and is related to NAD(P)H production through glycolysis. Therefore, the amount of formazan dye measured at 490 nm directly correlated with the number of metabolically active cells reflecting cell proliferation and viability. Each assay was performed in quadruplicate.

| Structure (SMILES) | IC50 [µM] |
| --- | --- |
| O=C(Nc1nc2ccccc2[nH]1)Nc1ccccc1Cl [C14] | > 25 |
| O=C(Nc1cccc(Cl)c1)Nc1nc2ccccc2[nH]1 [C15] | > 25 |
| COc1ccc(NC(=O)Nc2nc3ccccc3[nH]2)cc1 [C17] | > 25 |
| O=C(Nc1ccccc1)Nc1nc2ccccc2s1 [C20] | > 25 |
| O=C(Nc1nc2ccccc2s1)Nc1ccccc1Cl [C21] | > 25 |
| O=C(Nc1cccc(Cl)c1)Nc1nc2ccccc2s1 [C22] | > 25 |

The molecules below were run on Molm14 (assay: XTT cell viability assay, Molm14 AML cells). Conditions: Homo sapiens, MOLM-14, 48 h, SD 10%, mean of three experiments.
Assay type: cell-based, human
Procedure: as §1

| Structure (SMILES) | IC50 [µM] |
| --- | --- |
| O=C(Nc1nc2ccccc2[nH]1)Nc1ccccc1Cl [C14] | > 25 |
| O=C(Nc1cccc(Cl)c1)Nc1nc2ccccc2[nH]1 [C15] | > 25 |
| COc1ccc(NC(=O)Nc2nc3ccccc3[nH]2)cc1 [C17] | > 25 |
| O=C(Nc1ccccc1)Nc1nc2ccccc2s1 [C20] | > 25 |
| O=C(Nc1nc2ccccc2s1)Nc1ccccc1Cl [C21] | > 25 |
| O=C(Nc1cccc(Cl)c1)Nc1nc2ccccc2s1 [C22] | > 25 |

Each molecule was assayed on RCC4 (assay: XTT cell viability assay, RCC4 RCC cells). Conditions: Homo sapiens, RCC4, 48 h, SD 10%, mean of three experiments, read-out: IC50 R4 (Kidney RCC).
Assay type: cell-based, human
Procedure: as §1

| Structure (SMILES) | IC50 [µM] |
| --- | --- |
| O=C(Nc1nc2ccccc2[nH]1)Nc1ccccc1Cl [C14] | > 25 |
| O=C(Nc1cccc(Cl)c1)Nc1nc2ccccc2[nH]1 [C15] | > 25 |
| COc1ccc(NC(=O)Nc2nc3ccccc3[nH]2)cc1 [C17] | > 25 |
| O=C(Nc1ccccc1)Nc1nc2ccccc2s1 [C20] | > 25 |
| O=C(Nc1nc2ccccc2s1)Nc1ccccc1Cl [C21] | 25 |
| O=C(Nc1cccc(Cl)c1)Nc1nc2ccccc2s1 [C22] | 20 |

What follows are molecules tested on CAL33 (assay: XTT cell viability assay, CAL33 HNSCC cells). Conditions: Homo sapiens, CAL-33; XTT assay, 48 h; SD 10%; mean of three experiments; read-out: IC50 33 (HNSCC).
Assay type: cell-based, human
Procedure: as §1

| Structure (SMILES) | IC50 [µM] |
| --- | --- |
| O=C(Nc1nc2ccccc2[nH]1)Nc1ccccc1Cl [C14] | > 25 |
| O=C(Nc1cccc(Cl)c1)Nc1nc2ccccc2[nH]1 [C15] | > 25 |
| COc1ccc(NC(=O)Nc2nc3ccccc3[nH]2)cc1 [C17] | > 25 |
| O=C(Nc1ccccc1)Nc1nc2ccccc2s1 [C20] | > 25 |
| O=C(Nc1nc2ccccc2s1)Nc1ccccc1Cl [C21] | > 25 |
| O=C(Nc1cccc(Cl)c1)Nc1nc2ccccc2s1 [C22] | > 25 |

These molecules were tested on K562 (assay: XTT cell viability assay, K562 CML cells). Conditions: Homo sapiens, K562, 48 h, SD 10%, mean of three experiments.
Assay type: cell-based, human
Procedure: as §1

| Structure (SMILES) | IC50 [µM] |
| --- | --- |
| O=C(Nc1nc2ccccc2[nH]1)Nc1ccccc1Cl [C14] | > 25 |
| O=C(Nc1cccc(Cl)c1)Nc1nc2ccccc2[nH]1 [C15] | > 25 |
| COc1ccc(NC(=O)Nc2nc3ccccc3[nH]2)cc1 [C17] | > 25 |
| O=C(Nc1ccccc1)Nc1nc2ccccc2s1 [C20] | > 25 |
| O=C(Nc1nc2ccccc2s1)Nc1ccccc1Cl [C21] | > 25 |
| O=C(Nc1cccc(Cl)c1)Nc1nc2ccccc2s1 [C22] | 25 |

What follows are molecules tested on A498 (assay: XTT cell viability assay, A498 RCC cells). Conditions: Homo sapiens, A498; XTT assay, 48 h; SD 10%; mean of three experiments; read-out: IC50 498 (Kidney RCC).
Assay type: cell-based, human
Procedure: as §1

| Structure (SMILES) | IC50 [µM] |
| --- | --- |
| O=C(Nc1nc2ccccc2[nH]1)Nc1ccccc1Cl [C14] | > 25 |
| O=C(Nc1cccc(Cl)c1)Nc1nc2ccccc2[nH]1 [C15] | > 25 |
| COc1ccc(NC(=O)Nc2nc3ccccc3[nH]2)cc1 [C17] | > 25 |
| O=C(Nc1ccccc1)Nc1nc2ccccc2s1 [C20] | > 25 |
| O=C(Nc1nc2ccccc2s1)Nc1ccccc1Cl [C21] | > 25 |
| O=C(Nc1cccc(Cl)c1)Nc1nc2ccccc2s1 [C22] | > 25 |

Each molecule was assayed on OCI-AML3 (assay: XTT cell viability assay, OCI-AML3 AML cells). Conditions: Homo sapiens, OCI-AML-3, 48 h, SD 10%, mean of three experiments, read-out: IC50 L3 (AML).
Assay type: cell-based, human
Procedure: as §1

| Structure (SMILES) | IC50 [µM] |
| --- | --- |
| O=C(Nc1nc2ccccc2[nH]1)Nc1ccccc1Cl [C14] | > 25 |
| O=C(Nc1cccc(Cl)c1)Nc1nc2ccccc2[nH]1 [C15] | > 25 |
| COc1ccc(NC(=O)Nc2nc3ccccc3[nH]2)cc1 [C17] | > 25 |
| O=C(Nc1ccccc1)Nc1nc2ccccc2s1 [C20] | > 25 |
| O=C(Nc1nc2ccccc2s1)Nc1ccccc1Cl [C21] | > 25 |
| O=C(Nc1cccc(Cl)c1)Nc1nc2ccccc2s1 [C22] | > 25 |

What follows are molecules tested on SKM1 (assay: XTT cell viability assay, SKM1 MDS cells). Conditions: Homo sapiens, SKM-1, 48 h, SD 10%, mean of three experiments, read-out: IC50 SK (MDS).
Assay type: cell-based, human
Procedure: as §1

| Structure (SMILES) | IC50 [µM] |
| --- | --- |
| O=C(Nc1nc2ccccc2[nH]1)Nc1ccccc1Cl [C14] | > 25 |
| O=C(Nc1cccc(Cl)c1)Nc1nc2ccccc2[nH]1 [C15] | > 25 |
| COc1ccc(NC(=O)Nc2nc3ccccc3[nH]2)cc1 [C17] | > 25 |
| O=C(Nc1ccccc1)Nc1nc2ccccc2s1 [C20] | > 25 |
| O=C(Nc1nc2ccccc2s1)Nc1ccccc1Cl [C21] | > 25 |
| O=C(Nc1cccc(Cl)c1)Nc1nc2ccccc2s1 [C22] | > 25 |

What follows are molecules tested on CAL27 (assay: XTT cell viability assay, CAL27 HNSCC cells). Conditions: Homo sapiens, CAL-27; XTT assay, 48 h; SD 10%; mean of three experiments; read-out: IC50 27 (HNSCC).
Assay type: cell-based, human
Procedure: as §1

| Structure (SMILES) | IC50 [µM] |
| --- | --- |
| O=C(Nc1nc2ccccc2[nH]1)Nc1ccccc1Cl [C14] | > 25 |
| O=C(Nc1cccc(Cl)c1)Nc1nc2ccccc2[nH]1 [C15] | > 25 |
| COc1ccc(NC(=O)Nc2nc3ccccc3[nH]2)cc1 [C17] | > 25 |
| O=C(Nc1ccccc1)Nc1nc2ccccc2s1 [C20] | > 25 |
| O=C(Nc1nc2ccccc2s1)Nc1ccccc1Cl [C21] | > 25 |
| O=C(Nc1cccc(Cl)c1)Nc1nc2ccccc2s1 [C22] | > 25 |

Each molecule was assayed on MDA-MD-231 (assay: XTT cell viability assay, breast cancer cells). Conditions: Homo sapiens, 48 h, SD 10%, mean of three experiments.
Assay type: cell-based, human
Procedure: as §1

| Structure (SMILES) | IC50 [µM] |
| --- | --- |
| O=C(Nc1nc2ccccc2[nH]1)Nc1ccccc1Cl [C14] | > 25 |
| O=C(Nc1cccc(Cl)c1)Nc1nc2ccccc2[nH]1 [C15] | > 25 |
| COc1ccc(NC(=O)Nc2nc3ccccc3[nH]2)cc1 [C17] | > 25 |
| O=C(Nc1ccccc1)Nc1nc2ccccc2s1 [C20] | > 25 |
| O=C(Nc1nc2ccccc2s1)Nc1ccccc1Cl [C21] | > 25 |
| O=C(Nc1cccc(Cl)c1)Nc1nc2ccccc2s1 [C22] | > 25 |

These molecules were tested on 786-O (assay: XTT cell viability assay, 786-O RCC cells). Conditions: Homo sapiens, 786-0; XTT assay, 48 h; SD 10%; mean of three experiments; read-out: IC50 786 (Kidney RCC).
Assay type: cell-based, human
Procedure: as §1

| Structure (SMILES) | IC50 [µM] |
| --- | --- |
| O=C(Nc1nc2ccccc2[nH]1)Nc1ccccc1Cl [C14] | > 25 |
| O=C(Nc1cccc(Cl)c1)Nc1nc2ccccc2[nH]1 [C15] | > 25 |
| COc1ccc(NC(=O)Nc2nc3ccccc3[nH]2)cc1 [C17] | > 25 |
| O=C(Nc1ccccc1)Nc1nc2ccccc2s1 [C20] | > 25 |
| O=C(Nc1nc2ccccc2s1)Nc1ccccc1Cl [C21] | > 25 |
| O=C(Nc1cccc(Cl)c1)Nc1nc2ccccc2s1 [C22] | > 25 |

These molecules were tested on OCI-AML2 (assay: XTT cell viability assay, OCI-AML2 AML cells). Conditions: Homo sapiens, OCI-AML2, 48 h, SD 10%, mean of three experiments, read-out: IC50 L2 (AML).
Assay type: cell-based, human
Procedure: as §1

| Structure (SMILES) | IC50 [µM] |
| --- | --- |
| O=C(Nc1nc2ccccc2[nH]1)Nc1ccccc1Cl [C14] | > 25 |
| O=C(Nc1cccc(Cl)c1)Nc1nc2ccccc2[nH]1 [C15] | > 25 |
| COc1ccc(NC(=O)Nc2nc3ccccc3[nH]2)cc1 [C17] | > 25 |
| O=C(Nc1ccccc1)Nc1nc2ccccc2s1 [C20] | > 25 |
| O=C(Nc1nc2ccccc2s1)Nc1ccccc1Cl [C21] | 10 |
| O=C(Nc1cccc(Cl)c1)Nc1nc2ccccc2s1 [C22] | > 25 |
